From publication PMC8229952, “Coumarin Derivatives Act as Novel Inhibitors of Human Dipeptidyl Peptidase III: Combined In Vitro and In Silico Study” (Pharmaceuticals, 2021)

Experiments:
[1] = target: T1, human dipeptidyl peptidase III (hDPP III) (Homo sapiens, UniProt Q9NY33); test: spectrophotometric enzyme assay, % inhibition at […], purified hDPP III; format: biochemical; settings: for inhibition at 10 µM: read-out: DPP III Inh. (%)
T1 construct: gene DPP3; C-terminally truncated human DPP III (His-tag removed by TEV)
T1 sequence (Q9NY33 1-726 limits assumed): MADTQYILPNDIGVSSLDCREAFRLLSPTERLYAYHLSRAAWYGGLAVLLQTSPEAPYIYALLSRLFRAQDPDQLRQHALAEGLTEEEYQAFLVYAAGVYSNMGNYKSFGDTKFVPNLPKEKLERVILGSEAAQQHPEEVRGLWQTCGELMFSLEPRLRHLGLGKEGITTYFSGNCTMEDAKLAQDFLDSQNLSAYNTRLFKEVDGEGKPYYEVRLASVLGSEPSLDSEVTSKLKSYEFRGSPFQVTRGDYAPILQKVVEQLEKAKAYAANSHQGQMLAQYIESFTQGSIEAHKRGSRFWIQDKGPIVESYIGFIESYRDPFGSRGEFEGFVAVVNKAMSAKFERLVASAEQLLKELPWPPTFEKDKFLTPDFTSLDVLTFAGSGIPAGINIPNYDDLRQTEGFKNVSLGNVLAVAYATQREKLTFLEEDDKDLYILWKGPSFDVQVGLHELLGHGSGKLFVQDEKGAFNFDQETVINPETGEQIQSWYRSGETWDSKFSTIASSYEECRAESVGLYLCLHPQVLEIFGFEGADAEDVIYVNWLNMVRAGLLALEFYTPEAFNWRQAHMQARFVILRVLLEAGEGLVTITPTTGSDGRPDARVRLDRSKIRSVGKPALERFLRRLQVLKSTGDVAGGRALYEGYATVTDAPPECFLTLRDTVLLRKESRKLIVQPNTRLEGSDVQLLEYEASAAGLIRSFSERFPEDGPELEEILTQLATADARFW

[2] = target: T1, human dipeptidyl peptidase III (hDPP III); test: spectrophotometric enzyme assay with Arg2-2NA substrate, purified hDPP III; format: biochemical; settings: read-out: DPP III Inh. (%)

| inhibition at 10 µM [1] | IC50 [2] | SMILES | other results |
| --- | --- | --- | --- |
| 67.5% | – | O=C(c1ccccc1)c1cc2cc(O)ccc2oc1=O [compound 10, 3-benzoyl; 6-hydroxy (substituted 2H-chromen-2-one)] | – |
| – | 1100 ± 50 nM | O=C(c1ccccc1)c1cc2ccc(O)cc2oc1=O [compound 12, 3-benzoyl-7-hydroxy-2H-chromen-2-one] | – |
| 44.6% | – | N#Cc1cc2cc(O)ccc2oc1=O [compound 18, 3-cyano; 6-hydroxy (substituted 2-oxo-2H-chromene-3-carbonitrile)] | – |
| 62.6% | – | N#Cc1cc2cccc(O)c2oc1=O [compound 21, 3-cyano; 8-hydroxy (substituted 2-oxo-2H-chromene-3-carbonitrile)] | – |
| – | – | CCOC(=O)c1cc2cc(O)ccc2oc1=O [compound 27, 3-ethoxycarbonyl; 6-hydroxy (substituted 2H-chromen-2-one)] | DPP III Inh. (%) ([1]; 10 µM): 66.0 |
| – | 2140 ± 60 nM | COC(=O)c1cc2ccc(O)cc2oc1=O [compound 36, methyl 7-hydroxy-2-oxo-2H-chromene-3-carboxylate] | – |
